Target: LSD-1 enzyme (Homo sapiens (Human), UniProt O60341)
Experiment: LANCE LSD1/KDM1A demethylase assay (LSD1 histone demethylase biochemical assay)
Details: 1 nM LSD-1 enzyme, 1 hour preincubation at 25° C., 0.4 μM Biotin-labeled Histone H3 peptide substrate

Q: Which IC50 does the source give for `CC(O)CN1CCC[C@@H](COc2cc(-c3ccc(C#N)cc3)c(-c3ccc4nccnc4c3)n3cncc23)C1` (stereo partly drawn) [Example 120, 4-(8-(((3R)-1-(2-hydroxypropyl)piperidin-3-yl)methoxy)-5-(quinoxalin-6-yl)imidazo[1,5-a]pyridin-6-yl)benzonitrile] here?
A: ≤ 50 nM

Q: `CN(C)C1CCN(c2nc(-c3ccc(C#N)cc3)c(-c3ccc4c(cnn4C)c3)n3cncc23)CC1` [Example 100, 4-[8-[4-(dimethylamino)piperidin-1-yl]-5-(1-methyl-1H-indazol-5-yl)imidazo[1,5-a]pyrazin-6-yl]benzonitrile] was tested. Which IC50 did it give?
A: ≤ 50 nM

Q: How did the IC50 turn out when `COC(=O)N(C)c1ccc(-c2c(-c3ccc(C#N)cc3)nc(OC[C@@H]3CCCN(C)C3)c3cncn23)cc1F` [Example 87, (R)-methyl (4-(6-(4-cyanophenyl)-8-((1-methylpiperidin-3-yl)methoxy)imidazo[1,5-a]pyrazin-5-yl)-2-fluorophenyl)(methyl)carbamate] was run?
A: ≤ 50 nM

Q: With `CN(C)C1CCN(c2nc(-c3ccc(C#N)cc3)c(-c3ccc4c(c3)oc(=O)n4C)n3cncc23)CC1` [Example 51, 4-[8-[4-(dimethylamino)piperidin-1-yl]-5-(3-methyl-2-oxo-2,3-dihydro-1,3-benzoxazol-6-yl)imidazo[1,5-a]pyrazin-6-yl]benzonitrile] as the compound, how does the IC50 read?
A: ≤ 50 nM

Q: How did the IC50 turn out when `CC(O)c1ccc(-c2c(-c3ccc(C#N)cc3)cc(OC[C@@H]3CCCN(C)C3)c3cncn23)cc1` (stereo partly drawn) [Example 123, 4-(5-[4-(1-hydroxyethyl)phenyl]-8-{[(3R)-1-methylpiperidin-3-yl]methoxy}imidazo[1,5-a]pyridin-6-yl)benzonitrile] was run?
A: ≤ 50 nM

Q: `Cn1ncc2cc(-c3c(-c4ccc(C#N)cc4)cc(OC[C@@H]4CCNC4)c4cncn34)ccc21` [Example 11, 4-{5-(1-methyl-1H-indazol-5-yl)-8-[(3R)-pyrrolidin-3-ylmethoxy]imidazo[1,5-a]pyridin-6-yl}benzonitrile] was tested. Which IC50 did it give?
A: ≤ 50 nM

Q: Which IC50 does the source give for `Cc1cc(-c2c(-c3ccc(C#N)cc3)nc(OC[C@@H]3CCCN(C)C3)c3cncn23)ccc1CO` [Example 45, 4-(5-[4-(hydroxymethyl)-3-methylphenyl]-8-{[(3R)-1-methylpiperidin-3-yl]methoxy}imidazo[1,5-a]pyrazin-6-yl)benzonitrile] here?
A: ≤ 50 nM

Q: With `CN(C)C1CCN(c2nc(-c3ccc(C#N)cc3)c(-c3cnc4c(cnn4C)c3)n3cncc23)CC1` [Example 50, 4-[8-[4-(dimethylamino)piperidin-1-yl]-5-(1-methyl-1H-pyrazolo[3,4-b]pyridin-5-yl)imidazo[1,5-a]pyrazin-6-yl]benzonitrile] as the compound, how does the IC50 read?
A: ≤ 50 nM

Q: `Cc1ccc(-c2c(-c3ccc(C#N)cc3)cc(OC[C@@H]3CCNC3)c3cncn23)cc1` [Example 1, 4-{5-(4-methylphenyl)-8-[(3R)-pyrrolidin-3-ylmethoxy]imidazo[1,5-a]pyridin-6-yl}benzonitrile] was tested. Which IC50 did it give?
A: ≤ 50 nM

Q: For `Cc1ccc(-c2c(-c3ccc(C#N)cc3)nc(N3CCC(N(C)C)CC3)c3cncn23)cc1CO` [Example 91, 4-{8-[4-(dimethylamino)piperidin-1-yl]-5-[3-(hydroxymethyl)-4-methylphenyl]imidazo[1,5-a]pyrazin-6-yl}benzonitrile], which IC50 is on record?
A: ≤ 50 nM

Q: `CN1CCC[C@@H](COc2nc(-c3ccc(C#N)cc3)c(-c3cc(F)c(CO)c(F)c3)n3cncc23)C1` [Example 47, 4-(5-[3,5-difluoro-4-(hydroxymethyl)phenyl]-8-{[(3R)-1-methylpiperidin-3-yl]methoxy}imidazo[1,5-a]pyrazin-6-yl)benzonitrile] was tested. Which IC50 did it give?
A: ≤ 50 nM

Q: `COCCN1CCC[C@@H](COc2cc(-c3ccc(C#N)cc3)c(-c3cnc4ccoc4c3)n3cncc23)C1` [Example 121, 4-(5-furo[3,2-b]pyridin-6-yl-8-{[(3R)-1-(2-methoxyethyl)piperidin-3-yl]methoxy}imidazo[1,5-a]pyridin-6-yl)benzonitrile] was tested. Which IC50 did it give?
A: ≤ 50 nM

Q: Which IC50 does the source give for `COc1ncc(-c2c(-c3ccc(C#N)cc3)cc(OC[C@@H]3CCCN(C)C3)c3cncn23)cc1F` [Example 70, (R)-4-(5-(5-fluoro-6-methoxypyridin-3-yl)-8-((1-methylpiperidin-3-yl)methoxy)imidazo[1,5-a]pyridin-6-yl)benzonitrile] here?
A: ≤ 50 nM

Q: Which IC50 does the source give for `Cc1cc(-c2c(-c3ccc(C#N)cc3)nc(OC[C@@H]3CCCN(C)C3)c3cncn23)cnc1C` [Example 86, 4-(5-(5,6-dimethylpyridin-3-yl)-8-{[(3R)-1-methylpiperidin-3-yl]methoxy}imidazo[1,5-a]pyrazin-6-yl)benzonitrile] here?
A: ≤ 50 nM

Q: `Cc1cc(-c2c(-c3ccc(C#N)cc3)cc(OC[C@@H]3CCCN(C)C3)c3cncn23)cc(F)c1CO` [Example 75, 4-(5-[3-fluoro-4-(hydroxymethyl)-5-methylphenyl]-8-{[(3R)-1-methylpiperidin-3-yl]methoxy}imidazo[1,5-a]pyridin-6-yl)benzonitrile] was tested. Which IC50 did it give?
A: ≤ 50 nM

Q: For `Cc1ncc(-c2c(-c3ccc(C#N)cc3)cc(OC[C@@H]3CCCN(C)C3)c3cncn23)cc1O` [Example 76, 4-(5-(5-hydroxy-6-methylpyridin-3-yl)-8-{[(3R)-1-methylpiperidin-3-yl]methoxy}imidazo[1,5-a]pyridin-6-yl)benzonitrile], which IC50 is on record?
A: ≤ 50 nM

Q: `Cc1ccc(-c2c(-c3ccc([N+](=O)[O-])cc3)cc(OC[C@@H]3CCNC3)c3cncn23)cc1` [Example 3, 5-(4-methylphenyl)-6-(4-nitrophenyl)-8-[(3R)-pyrrolidin-3-ylmethoxy]imidazo[1,5-a]pyridine] was tested. Which IC50 did it give?
A: ≤ 50 nM

Q: With `CN1CCC[C@@H](COc2cc(-c3ccc(C#N)cc3)c(-c3ccc4c(c3)OCC(=O)N4C)n3cncc23)C1` [Example 65, (R)-4-(5-(4-methyl-3-oxo-3,4-dihydro-2H-benzo[b][1,4]oxazin-7-yl)-8-((1-methylpiperidin-3-yl)methoxy)imidazo[1,5-a]pyridin-6-yl)benzonitrile] as the compound, how does the IC50 read?
A: ≤ 50 nM

Q: With `Cc1ncc(-c2c(-c3ccc(C#N)cc3)nc(N3CCC(N(C)C)CC3)c3cncn23)cc1F` [Example 97, 4-[8-[4-(dimethylamino)piperidin-1-yl]-5-(5-fluoro-6-methylpyridin-3-yl)imidazo[1,5-a]pyrazin-6-yl]benzonitrile] as the compound, how does the IC50 read?
A: ≤ 50 nM

Q: For `CN(C)[C@H]1CCN(c2nc(-c3ccc(C#N)cc3)c(-c3cc4oc(=O)n(C)c4cc3F)n3cncc23)C1` [Example 113, 4-[8-[(3S)-3-(dimethylamino)pyrrolidin-1-yl]-5-(5-fluoro-3-methyl-2-oxo-2,3-dihydro-1,3-benzoxazol-6-yl)imidazo[1,5-a]pyrazin-6-yl]benzonitrile], which IC50 is on record?
A: ≤ 50 nM

Q: `Cc1cc(-c2c(-c3ccc(C#N)cc3)nc(N3CCC(N(C)C)CC3)c3cncn23)ccc1CO` [Example 149, 4-{8-[4-(dimethylamino)piperidin-1-yl]-5-[4-(hydroxymethyl)-3-methylphenyl]imidazo[1,5-a]pyrazin-6-yl}benzonitrile] was tested. Which IC50 did it give?
A: ≤ 50 nM

Q: With `CN1CCN(Cc2ccc(-c3c(-c4ccc(C#N)cc4)cc(OC[C@@H]4CCNC4)c4cncn34)cc2)CC1` [Example 19, 4-{5-{4-[(4-methylpiperazin-1-yl)methyl]phenyl}-8-[(3R)-pyrrolidin-3-ylmethoxy]imidazo-[1,5-a]pyridin-6-yl}benzonitrile] as the compound, how does the IC50 read?
A: ≤ 50 nM

Q: `CN1CCC[C@@H](COc2cc(-c3ccc(C#N)cc3)c(-c3cc(F)c(CO)c(F)c3)n3cncc23)C1` [Example 73, (R)-4-(5-(3,5-difluoro-4-(hydroxymethyl)phenyl)-8-((1-methylpiperidin-3-yl)methoxy)imidazo[1,5-a]pyridin-6-yl)benzonitrile] was tested. Which IC50 did it give?
A: ≤ 50 nM

Reference: patent publication US10047086B2, “Imidazopyridines and imidazopyrazines as LSD1 inhibitors” (Incyte Corporation, priority 2014, dated 2018)
